In paper PMC2628638, “Catalytic inhibition of topoisomerase II by a novel rationally designed ATP-competitive purine analogue” (BMC Chemical Biology, 2009):

Experiments:
topoisomerase II beta = biological target: T1, topoisomerase II beta (Homo sapiens, UniProt Q02880); assay: Affinity precipitation with biotinylated purine analogue 2 from HL-60 nuclear extracts; type: binding; settings: 1 μM biotinylated analogue 2; competitor in excess (10 μM), QAP 1 also at equimolar concentration
T1 construct: endogenous in cells; host or cells: HL-60 nuclear extract
T1 sequence (Q02880 whole entry): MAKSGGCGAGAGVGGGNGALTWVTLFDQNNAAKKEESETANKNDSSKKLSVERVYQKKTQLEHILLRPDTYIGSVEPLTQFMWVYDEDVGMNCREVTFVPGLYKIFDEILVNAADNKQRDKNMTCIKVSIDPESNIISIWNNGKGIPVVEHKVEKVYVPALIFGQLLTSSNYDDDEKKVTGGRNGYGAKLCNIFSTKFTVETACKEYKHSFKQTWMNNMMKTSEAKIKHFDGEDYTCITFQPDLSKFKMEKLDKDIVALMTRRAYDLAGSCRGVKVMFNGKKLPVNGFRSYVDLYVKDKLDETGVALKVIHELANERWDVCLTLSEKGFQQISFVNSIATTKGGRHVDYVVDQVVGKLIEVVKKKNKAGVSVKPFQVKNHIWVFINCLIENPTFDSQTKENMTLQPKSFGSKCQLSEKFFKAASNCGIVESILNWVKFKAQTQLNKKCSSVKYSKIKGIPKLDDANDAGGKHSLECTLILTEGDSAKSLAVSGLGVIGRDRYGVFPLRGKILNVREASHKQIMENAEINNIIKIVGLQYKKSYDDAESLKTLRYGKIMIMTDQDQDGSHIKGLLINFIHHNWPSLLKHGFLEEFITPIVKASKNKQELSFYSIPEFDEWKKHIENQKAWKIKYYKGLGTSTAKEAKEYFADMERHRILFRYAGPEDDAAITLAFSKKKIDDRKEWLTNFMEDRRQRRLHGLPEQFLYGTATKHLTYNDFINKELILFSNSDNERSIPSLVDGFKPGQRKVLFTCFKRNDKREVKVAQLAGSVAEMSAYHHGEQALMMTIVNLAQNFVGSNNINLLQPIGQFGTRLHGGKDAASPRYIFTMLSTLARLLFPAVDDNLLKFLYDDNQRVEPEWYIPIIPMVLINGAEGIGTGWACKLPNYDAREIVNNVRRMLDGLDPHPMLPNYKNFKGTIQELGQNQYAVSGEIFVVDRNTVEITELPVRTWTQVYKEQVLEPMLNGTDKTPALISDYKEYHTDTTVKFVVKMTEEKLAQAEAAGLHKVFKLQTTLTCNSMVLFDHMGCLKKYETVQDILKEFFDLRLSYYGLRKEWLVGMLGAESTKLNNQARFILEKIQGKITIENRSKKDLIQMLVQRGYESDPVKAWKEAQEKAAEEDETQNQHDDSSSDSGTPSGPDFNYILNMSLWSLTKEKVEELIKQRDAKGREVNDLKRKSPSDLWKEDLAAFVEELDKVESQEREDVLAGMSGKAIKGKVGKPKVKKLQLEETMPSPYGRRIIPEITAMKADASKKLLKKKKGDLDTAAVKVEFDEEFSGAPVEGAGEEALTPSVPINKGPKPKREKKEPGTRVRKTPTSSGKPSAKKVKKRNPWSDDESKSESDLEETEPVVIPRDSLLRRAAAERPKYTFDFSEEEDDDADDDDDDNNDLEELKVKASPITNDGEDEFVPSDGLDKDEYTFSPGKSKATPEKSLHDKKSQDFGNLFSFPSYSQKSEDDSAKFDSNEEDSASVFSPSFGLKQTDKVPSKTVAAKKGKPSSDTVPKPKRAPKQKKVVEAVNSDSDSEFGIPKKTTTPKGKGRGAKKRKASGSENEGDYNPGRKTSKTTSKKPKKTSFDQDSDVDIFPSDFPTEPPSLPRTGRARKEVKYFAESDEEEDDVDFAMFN
Description: (§1) Topoisomerase II α and β were affinity precipitated with biotinylated inhibitor as follows. Exponentially growing HL-60 cells were collected on ice and incubated with hypotonic buffer (10 mM HEPES pH 7.5, 1.5 mM MgCl2, 10 mM KCl, 0.5 mM DTT, 0.5 mM PMSF, 1× protease inhibitor cocktail (Complete Mini, Roche Diagnostics GmbH)) for 15 minutes, then 0.6% v/v NP-40 was added and cells were disrupted using a Dounce homogenizer. Lysates were transferred to 1.5 ml Protein LoBind Eppendorf tubes and nuclei were collected after centrifugation at 8000 rpm for 10 minutes and washed twice with hypotonic buffer. To extract and release chromatin associated topoisomerase II nuclei were incubated for 30 minutes in DNAse buffer (20 mM Tris HCl pH 7.5, 5 mM MgCl2, 1 mM CaCl2, 25 mM NaCl, 0.5 mM EDTA, 1% NP-40, 1 mM DTT, 1 × protease inhibitor cocktail, 0.1 mM PMSF) containing 40 U DNAse I (Roche Diagnostics GmbH) followed by addition of twice concentrated nuclear extraction buffer (20 mM HEPES pH 7.5, 3 mM MgCl2, 20 mM KCl, 50 mM β-glycerophosphate, 840 mM NaCl, 1 mM EDTA, 50 mM PNPP, 1 mM DTT, 1 mM PMSF) and rotation for 1 h in the coldroom. The soluble fraction was obtained following centrifugation at 13000 rpm for 15 minutes. 25 μg nuclear extract were used for the affinity precipitation. The salt concentration was adjusted to 150 mM with nuclear extraction buffer (without NaCl) and the sample volume was toped off to 200 μl with precipitation buffer (50 mM HEPES pH 7.4, 150 mM NaCl, 25 mM β-glycerophosphate, 25 mM NaF, 5 mM EGTA, 1 mM EDTA, 15 mM PPI, 1 mM PMSF). Compounds were preincubated for 30 minutes prior addition of biotinylated purine analogue 2 for 2 h. Streptavidin agarose beads (Novagen, 69203) were washed twice with PBS, blocked for 30 minutes with PBS containing 1% BSA, washed twice with PBS and finally with precipitation buffer. 40 μl equilibrated streptavidin agarose beads were added to the sample and incubation was continued for 1 h. Beads were pelleted by centrifugation at 7000 rpm for 5 minutes and washed thrice with precipitation buffer. During the last wash the beads were transferred to a new tube and the bound fraction was released by boiling for 5 minutes in Laemmli sample buffer. Topoisomerase II α and β were detected by Western blot as described below.

HL-60 cells [1] = assay: Chromosome segregation assay (chromosome spreads); type: cell-based; settings: 10 μM with 1 mM caffeine for 2 hours after 6 hours release
Description: HL-60 cells were treated overnight for 16 hours with 2 μg/ml aphidicolin (Sigma-Aldrich corporation, St. Louis, MO) and released by washing twice PBS and resuspending into fresh medium. After 6 hours release the cells were treated with 1 mM caffeine (Lancaster Synthesis, Heysham, Lancashire, UK) and with catalytic topoisomerase II inhibitor or vehicle for 2 hours. Cells were washed once with PBS and incubated with 56 mM KCl hypotonic solution for 30 minutes. Cells were pelleted and carefully resuspended in Carnoy's fixative. Cells were pelleted as above, supernatant was removed and cells were resuspended again in 2 ml fixative. Chromosome spreads were prepared by dropping 50 μl cell suspension onto microscopy slides. The slides were allowed to dry and then stained for 10 seconds in Hoechst 33342 dye (Molecular Probes, Eugene, Oregon, prepared 1:1000 in PBS from 10 mg/ml stock). After drying, mounting media (Vectashield®, Vector Laboratories, Burlingame, CA) and a cover slip were added. Samples were observed using an immersion oil lens (100 ×, Nikon, Plan Apo VC) by fluorescence microscopy (Nikon Eclipse, E600) in the DAPI channel. Images were acquired using analySIS® software (Soft Imaging System GmbH, Münster, Germany). Representative images were converted to grayscale, inverted and contrast adjusted with Adobe Photoshop. Mitotic cells were categorized as described.

HL-60 cells [2] = assay: Proliferation assay over 72 hours; type: cell-based; settings: Homo sapiens, read-out: half-maximal growth inhibitory concentration (GI50)
[3] = system: HCC1937 BRCA1 mutant and HCC1937 BRCA1 reconstituted cells; assay: Clonogenic growth assay (WST-1, colony counting); type: cell-based
Description: HCC1937 BRCA1 mutant and HCC1937 BRCA1 reconstituted breast ductal carcinoma cells were cultured in RPMI-1640 medium supplemented with 10% fetal calf serum, 2 mM L-glutamine, 1 mM sodium pyruvate, 4.5 g/l glucose and 1% (v/v) penicillin/streptomycin. Status of BRCA1 was corroborated by immunoprecipitation using 50 μg nuclear extracts and 1 μg mouse monoclonal antibody MS110 (ab16780, Abcam Inc., Cambridge, MA), which is directed towards the amino-terminus of the protein. Blots were probed with BRCA1 carboxy-terminal specific mouse monoclonal antibody D9 (sc-6954, Santa Cruz Biotechnologies, Santa Cruz, CA) and, following stripping, re-probed with antibody MS110. For assays, 5000 cells in 3 ml medium were seeded per well of 6 well plates in duplicates. The day after, vehicle (DMSO) or compounds were added. After one week medium was exchanged and vehicle or compounds were re-added for an additional two days. To assess proliferation the medium in each well was replaced with 1 ml medium containing 100 μl WST-1 reagent and incubation for 20 minutes at 37°C. Of each sample 110 μl supernatant were transferred into a 96 well plate and the OD was read at 450 nm (filter at 630 nm) on a SpectraMax Plus microtiter plate reader using SoftMax Pro software (Molecular Devices). For background correction, the blank value consisted of 100 μl medium containing 10 μl WST-1. Thereafter, colonies were stained by removing medium, washing cells once with PBS and incubation with 1 ml crystal violet solution for 30 minutes at room temperature. Cells were washed twice with PBS and colonies were counted using an Artec Counter (Model 880, Artec, Dyntatech Laboratories Inc.) with diameter cut-off set to 0.2 mm. Data were expressed as growth or colony numbers relative to vehicle control treatments (100%).

topoisomerase II alpha = topoisomerase II alpha (Homo sapiens, UniProt P11388); assay: Affinity precipitation with biotinylated purine analogue 2 from HL-60 nuclear extracts; type: binding; parameters: endogenous in cells; host or cells: HL-60 nuclear extract; settings: 1 μM biotinylated analogue 2; competitor in excess (10 μM), QAP 1 also at equimolar concentration
Chain of topoisomerase II alpha (P11388 whole entry): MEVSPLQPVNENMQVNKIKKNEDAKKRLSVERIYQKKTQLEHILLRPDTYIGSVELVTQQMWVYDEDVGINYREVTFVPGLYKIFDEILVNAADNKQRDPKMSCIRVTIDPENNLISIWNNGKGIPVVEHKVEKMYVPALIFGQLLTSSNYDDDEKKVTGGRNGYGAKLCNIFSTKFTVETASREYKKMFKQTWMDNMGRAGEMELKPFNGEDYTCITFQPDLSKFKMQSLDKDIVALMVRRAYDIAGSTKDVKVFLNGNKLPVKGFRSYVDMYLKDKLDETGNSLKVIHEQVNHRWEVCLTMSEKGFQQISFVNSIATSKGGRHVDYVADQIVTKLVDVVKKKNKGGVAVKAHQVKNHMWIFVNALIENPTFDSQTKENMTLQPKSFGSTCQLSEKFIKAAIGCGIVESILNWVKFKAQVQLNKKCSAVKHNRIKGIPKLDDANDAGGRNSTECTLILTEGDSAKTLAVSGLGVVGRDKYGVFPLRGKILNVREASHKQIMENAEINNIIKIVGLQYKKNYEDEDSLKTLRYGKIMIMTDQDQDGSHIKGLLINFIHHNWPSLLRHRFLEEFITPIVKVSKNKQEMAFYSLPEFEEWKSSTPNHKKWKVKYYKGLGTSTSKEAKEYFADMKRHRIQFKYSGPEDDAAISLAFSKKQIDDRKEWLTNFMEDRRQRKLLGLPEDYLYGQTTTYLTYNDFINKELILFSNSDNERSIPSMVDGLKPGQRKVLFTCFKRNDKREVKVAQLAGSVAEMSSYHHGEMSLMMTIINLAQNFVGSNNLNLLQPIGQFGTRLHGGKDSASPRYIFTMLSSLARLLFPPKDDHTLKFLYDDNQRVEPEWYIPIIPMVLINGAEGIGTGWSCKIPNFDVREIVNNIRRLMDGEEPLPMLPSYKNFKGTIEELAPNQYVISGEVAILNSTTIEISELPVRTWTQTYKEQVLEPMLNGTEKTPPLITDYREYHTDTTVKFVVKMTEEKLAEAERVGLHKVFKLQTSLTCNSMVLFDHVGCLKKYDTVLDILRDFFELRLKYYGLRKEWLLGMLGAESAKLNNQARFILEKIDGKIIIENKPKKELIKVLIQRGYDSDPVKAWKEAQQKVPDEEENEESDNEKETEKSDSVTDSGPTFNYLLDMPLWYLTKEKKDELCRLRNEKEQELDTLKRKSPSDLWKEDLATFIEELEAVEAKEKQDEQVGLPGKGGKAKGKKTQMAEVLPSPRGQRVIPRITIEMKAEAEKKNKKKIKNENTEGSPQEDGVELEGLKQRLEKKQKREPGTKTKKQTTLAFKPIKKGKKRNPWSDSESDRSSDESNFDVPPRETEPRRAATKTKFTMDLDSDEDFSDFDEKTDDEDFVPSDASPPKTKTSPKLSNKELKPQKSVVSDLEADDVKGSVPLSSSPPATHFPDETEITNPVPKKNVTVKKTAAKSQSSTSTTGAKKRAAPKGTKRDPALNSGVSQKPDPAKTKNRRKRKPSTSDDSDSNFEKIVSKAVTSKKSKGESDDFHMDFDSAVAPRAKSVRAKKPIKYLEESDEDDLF
Description: as §1

SMILES: CCc1nc2nc(Nc3ccc4nc(OCCN5CCOCC5)ccc4c3)nc(NC(C)(C)C)c2[nH]1 [QAP 1]
- competition of the interaction of biotinylated purine analogue 2 with topoisomerase II beta (topoisomerase II beta): abolished
- chromosome segregation at mitosis (HL-60 cells [1]): mitosis was also severely perturbed during anaphase
- GI50 (HL-60 cells [2]): 8 µM
- colony formation of BRCA1 mutant cells ([3]; 5 μM, 9 days): striking suppression
- sensitivity of BRCA1 mutant versus BRCA1 reconstituted HCC1937 cells ([3]; continuous treatment for 9 days, WST-1 and colony numbers): differential antiproliferative effect
- competition of the interaction of biotinylated purine analogue 2 with topoisomerase II alpha (topoisomerase II alpha): abolished
